Source: publication PMC11952451 (bioRxiv, 2025)
“Also recorded” adds a separate entry of the source.

What was measured:
[1] = tested on: viability; conditions: some effects on DNA damage response and mutagenesis; cited from earlier work
[2] = molecular target: T1, B. subtilis DnaN (Bacillus subtilis, UniProt P05649); type: binding
T1 sequence (P05649 1-378): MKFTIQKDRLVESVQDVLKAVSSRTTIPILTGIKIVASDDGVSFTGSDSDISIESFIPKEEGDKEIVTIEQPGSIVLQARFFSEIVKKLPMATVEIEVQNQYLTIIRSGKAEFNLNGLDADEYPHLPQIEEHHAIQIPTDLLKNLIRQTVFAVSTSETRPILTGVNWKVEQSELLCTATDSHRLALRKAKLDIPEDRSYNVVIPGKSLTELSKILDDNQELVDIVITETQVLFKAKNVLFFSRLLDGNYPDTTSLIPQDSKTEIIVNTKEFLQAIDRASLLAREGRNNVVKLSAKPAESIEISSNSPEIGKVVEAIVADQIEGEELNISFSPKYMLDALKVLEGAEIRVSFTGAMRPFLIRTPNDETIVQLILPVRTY

[3] = tested on: E. coli clamp; conditions: cited from earlier work

For ATSMAF [εQ], the effect on viability [1] is listed as “no effect on viability”.
With FAM-Ahx-DDAMGLALDE-NH2 the “binding (FP response)” value ([2]; pH 7.5) was “lack of binding; also recorded: deficient in clamp binding in FP assays”.
For QLSLF, the “affinity class in words” value [2] is listed as “only micromolar affinity” and the “affinity class in words” value [3] is listed as “submicromolar affinity”.
In the case of QLSLPL [εL], the effect on viability [1] is given as “no effect on viability”.
